Data: paper PMC5522996, “Big conductance calcium‐activated potassium channel openers control spasticity without sedation” (British Journal of Pharmacology, 2017)

Experiments:
ML1 = assay: Receptor binding profile of VSN16R; design: species or system human; conditions: 10µM VSN16R
κ = target: T1, κ (Homo sapiens, UniProt P41145); assay: Receptor binding profile of VSN16R; conditions: 10µM VSN16R
T1 construct: purchased Cerep; Chantest; DiscoveRx; Multispan; MDS Pharma Services

EDG3 = target: T2, EDG3 (Homo sapiens, UniProt Q99500); assay: Receptor binding profile of VSN16R; conditions: 10µM VSN16R
T2 construct: purchased Cerep; Chantest; DiscoveRx; Multispan; MDS Pharma Services

hERG Kv11.1 K+ channel = target: T3, hERG Kv11.1 K+ channel (Homo sapiens, UniProt Q12809); assay: Receptor binding profile of VSN16R; conditions: tested to 100 µM
T3 construct: purchased Cerep; Chantest; DiscoveRx; Multispan; MDS Pharma Services

healthy humans = assay: Phase I single dose: coagulation, urinanalysis, vital signs, electrocardiograms; conditions: for Electrocardiogram Heart Rate / PR Duration / QRS Duration / QT Duration / RR Duration: Day 1; for Activated Partial Thrombin Time / Partial Prothrombin Time / Supine Diastolic Blood Pressure / Supine Pulse Rate / Supine Respiratory Rate / Supine Systolic Blood Pressure / Supine Temperature / Thrombin Time / Urinanalysis Ketones / Urinanalysis Specific Gravity / Urinanalysis pH / Urine Bilirubin / Urine Glucose / Urine Protein / Urine RBC: Day 2
M2 = target: T4, M2 (Homo sapiens, UniProt P08172); assay: Receptor binding profile of VSN16R; conditions: 10µM VSN16R
T4 construct: purchased Cerep; Chantest; DiscoveRx; Multispan; MDS Pharma Services

[1] = test system: spastic ABH mice with EAE; assay: Hoffman (H) reflex electrophysiology in spastic animals; format: in vivo, mouse; conditions: 30mg/kg i.v.
CCKA = target: T5, CCKA (Homo sapiens, UniProt P32238); assay: Receptor binding profile of VSN16R; conditions: 10µM VSN16R
T5 construct: purchased Cerep; Chantest; DiscoveRx; Multispan; MDS Pharma Services

A3 = target: T6, A3 (Homo sapiens, UniProt P0DMS8); assay: Receptor binding profile of VSN16R; conditions: 10µM VSN16R
T6 construct: purchased Cerep; Chantest; DiscoveRx; Multispan; MDS Pharma Services

5-HT1A = target: T7, 5-HT1A (Homo sapiens, UniProt P08908); assay: Receptor binding profile of VSN16R; conditions: 10µM VSN16R
T7 construct: purchased Cerep; Chantest; DiscoveRx; Multispan; MDS Pharma Services

GPR23 = target: T8, GPR23 (Homo sapiens, UniProt Q99677); assay: Receptor binding profile of VSN16R; conditions: 10µM VSN16R
T8 construct: purchased Cerep; Chantest; DiscoveRx; Multispan; MDS Pharma Services

BKCa channel = BKCa channel (Homo sapiens, UniProt Q12791); assay: Single‐channel inside‐out patch clamp, HCN‐2 neural cells; format: cell-based; conditions: inside‐out patches
Method: The human EA.hy926 endothelial cells (ATCC, Manassas, USA) were grown in DMEM containing 10% FCS and 1% HAT (5 mM hypoxanthine, 20 μM aminopterin and 0.8 mM thymidine) and were maintained in an incubator at 37°C in 5% CO2 atmosphere (Bondarenko et al., 2013). Human HNC‐2 neuronal cells were obtained from ATCC. For experiments, cells were plated on glass coverslips. Single‐channel recordings were obtained from excised inside‐out membrane patches in symmetrical solutions using the patch‐clamp technique. All patch‐clamp experiments were performed at room temperature with the use of a water hydraulic micromanipulator (WR‐6, Narishige, Japan). […] The pipettes were filled with 140 mM KCl, 10 mM HEPES, 1 mM MgCl2, 5 mM EGTA and […] CaCl2 buffered to pH 7.2 by adding KOH. Cells were super‐perfused with a bath solution containing 140 mM NaCl, 5 mM KCl, 1.2 mM MgCl2, 10 mM HEPES, 10 mM glucose and 2.4 mM CaCl2. […] Single‐channel activity was expressed as NPo, where N represents the number of functional ion channels in the membrane patch and Po represents the open channel probability determined from idealized traces (Bondarenko et al., 2011). […] Data were analysed by ANOVA, and statistical significance was evaluated using Scheffés post hoc test of the Prism 5 software for Windows (GraphPad Software).

rat mesenteric artery = assay: Methoxamine‐evoked contraction of rat mesenteric artery; format: cell-based
Method: Vessels were equilibrated and set to a basal tension of 2 to 2.5 mN. The integrity of the endothelium was assessed by pre‐contracting the vessel with 10 μM methoxamine (an α1‐adrenoceptor agonist), followed by relaxation with 10 μM carbachol (a muscarinic acetylcholine receptor agonist); vessels showing relaxations of greater than 90% were designated as endothelium‐intact. When the endothelium was not required, it was removed by rubbing the intima with a human hair; carbachol‐induced relaxation of less than 10% indicated successful removal. After the test for endothelial integrity, vessels were left for 30 min and then pre‐contracted with 10 μM methoxamine. This was followed by construction of a cumulative concentration–relaxation curve to VSN16R (10 nM–1 μM). […] Most experiments were performed in matched vessels; effects of blockers or endothelial removal were compared with the control responses obtained in separate vessels of the same rats. All relaxant responses are expressed as percentage relaxation of the tone induced by methoxamine. Values are given as mean ± SEM. Statistical comparisons of concentration‐dependent responses were made by two‐way ANOVA using Prism 4 (GraphPad Software, Inc, San Diego, CA, USA).

CYP450 2C19 = CYP450 2C19 (Homo sapiens, UniProt P33261)
Text: (§1) Inhibition of binding of either 3-cyano-7-ethoxycoumarin, dibenzylfluorescein or 7-benzyoxy-4-
(§2) (trifluoromethyl) coumarin in human enzyme transfected BTI NN-5B1-4 cells or Sf9 insect cells or
(§3) inhibition of dextromethorphan substrate to CYP450 2D6 in liver microsomes.

CYP450 2E1 = target: T9, CYP450 2E1 (Homo sapiens, UniProt P05181); assay: CYP450 inhibition of substrate binding; format: in vitro ADME; conditions: read-out: IC50 Inhibition of substrate binding, VSN16R
T9 construct: host or cells: BTI NN-5B1-4 or Sf9 insect cells
Text: as §1, §2, §3

M3 = target: T10, M3 (Homo sapiens, UniProt P20309); assay: Receptor binding profile of VSN16R; conditions: 10µM VSN16R
T10 construct: purchased Cerep; Chantest; DiscoveRx; Multispan; MDS Pharma Services
T10 sequence (P20309 whole entry): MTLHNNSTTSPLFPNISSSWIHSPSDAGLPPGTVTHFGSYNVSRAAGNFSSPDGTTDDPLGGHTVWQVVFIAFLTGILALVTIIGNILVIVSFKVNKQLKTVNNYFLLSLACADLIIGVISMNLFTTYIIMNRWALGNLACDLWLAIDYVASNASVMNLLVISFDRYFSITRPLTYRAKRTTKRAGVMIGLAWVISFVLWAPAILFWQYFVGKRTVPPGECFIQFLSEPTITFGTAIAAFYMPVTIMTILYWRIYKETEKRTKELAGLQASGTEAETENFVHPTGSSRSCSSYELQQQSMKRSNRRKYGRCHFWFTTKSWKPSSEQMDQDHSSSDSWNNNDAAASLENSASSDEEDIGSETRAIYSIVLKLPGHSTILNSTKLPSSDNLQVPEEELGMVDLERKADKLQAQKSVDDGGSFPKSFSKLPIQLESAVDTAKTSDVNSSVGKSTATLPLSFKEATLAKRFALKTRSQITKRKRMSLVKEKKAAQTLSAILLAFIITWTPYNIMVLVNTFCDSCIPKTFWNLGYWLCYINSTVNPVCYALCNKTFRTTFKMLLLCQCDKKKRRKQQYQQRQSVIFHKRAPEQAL

T2 sequence (Q99500 whole entry): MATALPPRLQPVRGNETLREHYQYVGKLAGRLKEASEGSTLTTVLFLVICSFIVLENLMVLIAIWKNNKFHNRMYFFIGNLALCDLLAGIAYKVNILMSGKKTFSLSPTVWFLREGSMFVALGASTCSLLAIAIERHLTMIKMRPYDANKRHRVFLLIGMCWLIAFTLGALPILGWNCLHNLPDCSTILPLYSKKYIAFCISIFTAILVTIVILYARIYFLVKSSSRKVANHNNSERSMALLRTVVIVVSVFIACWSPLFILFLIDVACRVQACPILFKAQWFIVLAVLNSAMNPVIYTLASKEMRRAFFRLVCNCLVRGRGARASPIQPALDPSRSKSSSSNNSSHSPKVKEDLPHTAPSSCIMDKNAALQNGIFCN
T5 sequence (P32238 whole entry): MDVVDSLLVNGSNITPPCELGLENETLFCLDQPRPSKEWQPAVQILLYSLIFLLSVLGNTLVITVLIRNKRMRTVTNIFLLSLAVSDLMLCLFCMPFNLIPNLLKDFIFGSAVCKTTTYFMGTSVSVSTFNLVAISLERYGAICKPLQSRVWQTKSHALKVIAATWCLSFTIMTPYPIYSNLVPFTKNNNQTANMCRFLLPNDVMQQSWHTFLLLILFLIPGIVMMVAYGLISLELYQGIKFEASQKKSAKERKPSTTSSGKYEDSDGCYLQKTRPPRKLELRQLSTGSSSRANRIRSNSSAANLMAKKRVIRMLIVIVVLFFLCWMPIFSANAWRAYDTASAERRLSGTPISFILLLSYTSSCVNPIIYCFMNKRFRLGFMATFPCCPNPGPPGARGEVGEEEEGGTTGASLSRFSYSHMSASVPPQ
T6 sequence (P0DMS8 whole entry): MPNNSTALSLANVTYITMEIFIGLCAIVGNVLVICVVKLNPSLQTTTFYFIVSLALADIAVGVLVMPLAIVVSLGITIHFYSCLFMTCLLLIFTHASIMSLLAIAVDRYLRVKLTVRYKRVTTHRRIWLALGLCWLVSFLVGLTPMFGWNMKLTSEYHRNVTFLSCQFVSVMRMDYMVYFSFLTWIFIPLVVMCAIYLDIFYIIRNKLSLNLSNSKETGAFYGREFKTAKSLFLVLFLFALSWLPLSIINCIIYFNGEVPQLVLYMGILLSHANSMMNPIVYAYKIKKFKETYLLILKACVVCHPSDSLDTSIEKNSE
T3 sequence (Q12809 whole entry): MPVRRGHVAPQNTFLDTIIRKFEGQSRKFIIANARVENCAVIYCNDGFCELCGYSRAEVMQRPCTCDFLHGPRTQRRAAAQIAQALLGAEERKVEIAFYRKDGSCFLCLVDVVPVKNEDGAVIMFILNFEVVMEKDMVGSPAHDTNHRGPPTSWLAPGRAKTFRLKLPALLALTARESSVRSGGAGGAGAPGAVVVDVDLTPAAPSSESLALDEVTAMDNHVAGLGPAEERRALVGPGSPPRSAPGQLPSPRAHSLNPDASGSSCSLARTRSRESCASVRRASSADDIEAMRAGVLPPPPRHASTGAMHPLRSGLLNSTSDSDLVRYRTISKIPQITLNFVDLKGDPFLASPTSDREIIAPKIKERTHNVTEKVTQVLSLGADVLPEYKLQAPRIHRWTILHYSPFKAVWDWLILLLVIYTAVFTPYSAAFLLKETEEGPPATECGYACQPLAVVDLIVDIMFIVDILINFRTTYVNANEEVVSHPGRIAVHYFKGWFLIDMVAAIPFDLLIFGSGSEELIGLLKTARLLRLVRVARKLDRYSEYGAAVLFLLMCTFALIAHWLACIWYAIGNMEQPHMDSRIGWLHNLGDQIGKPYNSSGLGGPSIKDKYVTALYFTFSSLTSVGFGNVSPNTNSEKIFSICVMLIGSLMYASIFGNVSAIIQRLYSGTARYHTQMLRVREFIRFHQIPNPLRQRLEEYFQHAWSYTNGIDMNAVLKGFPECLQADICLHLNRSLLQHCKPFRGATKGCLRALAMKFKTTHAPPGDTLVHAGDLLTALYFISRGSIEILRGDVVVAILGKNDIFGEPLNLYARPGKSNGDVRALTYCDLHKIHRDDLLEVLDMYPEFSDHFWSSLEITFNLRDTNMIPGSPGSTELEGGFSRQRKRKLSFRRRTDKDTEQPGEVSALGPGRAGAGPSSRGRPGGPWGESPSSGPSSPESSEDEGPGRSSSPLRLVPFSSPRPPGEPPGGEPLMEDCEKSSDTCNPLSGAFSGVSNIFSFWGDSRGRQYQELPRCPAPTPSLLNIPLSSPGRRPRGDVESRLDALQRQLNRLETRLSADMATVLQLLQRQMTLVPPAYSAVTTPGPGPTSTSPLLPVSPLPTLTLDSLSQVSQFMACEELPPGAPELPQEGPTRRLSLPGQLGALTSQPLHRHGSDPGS
CYP450 2C19, sequence (P33261 whole entry): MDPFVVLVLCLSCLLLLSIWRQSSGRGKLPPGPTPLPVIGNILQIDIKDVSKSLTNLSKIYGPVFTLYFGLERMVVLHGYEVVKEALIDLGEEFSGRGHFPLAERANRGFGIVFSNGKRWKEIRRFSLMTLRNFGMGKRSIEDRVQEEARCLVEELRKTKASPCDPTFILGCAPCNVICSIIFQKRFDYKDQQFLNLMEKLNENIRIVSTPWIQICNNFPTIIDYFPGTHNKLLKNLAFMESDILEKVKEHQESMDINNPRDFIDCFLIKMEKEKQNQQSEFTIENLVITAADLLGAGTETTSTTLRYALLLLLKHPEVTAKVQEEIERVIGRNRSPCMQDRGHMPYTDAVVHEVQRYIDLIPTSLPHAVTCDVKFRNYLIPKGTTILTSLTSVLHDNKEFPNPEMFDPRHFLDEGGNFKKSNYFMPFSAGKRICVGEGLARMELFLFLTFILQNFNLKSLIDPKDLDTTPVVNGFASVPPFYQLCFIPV
T9 sequence (P05181 whole entry): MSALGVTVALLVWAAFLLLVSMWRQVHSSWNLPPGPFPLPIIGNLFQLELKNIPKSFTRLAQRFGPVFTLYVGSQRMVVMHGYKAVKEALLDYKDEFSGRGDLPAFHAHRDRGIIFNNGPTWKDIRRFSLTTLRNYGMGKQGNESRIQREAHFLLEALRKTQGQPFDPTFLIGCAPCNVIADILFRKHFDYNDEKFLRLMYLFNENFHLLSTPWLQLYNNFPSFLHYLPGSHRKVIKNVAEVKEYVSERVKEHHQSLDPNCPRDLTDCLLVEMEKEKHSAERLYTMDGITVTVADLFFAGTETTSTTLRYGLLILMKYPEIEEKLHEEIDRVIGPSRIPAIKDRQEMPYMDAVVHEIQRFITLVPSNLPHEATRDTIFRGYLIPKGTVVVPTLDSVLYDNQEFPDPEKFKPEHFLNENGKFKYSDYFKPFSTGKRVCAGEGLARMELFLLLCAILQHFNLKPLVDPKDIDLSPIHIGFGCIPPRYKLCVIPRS
T7 sequence (P08908 whole entry): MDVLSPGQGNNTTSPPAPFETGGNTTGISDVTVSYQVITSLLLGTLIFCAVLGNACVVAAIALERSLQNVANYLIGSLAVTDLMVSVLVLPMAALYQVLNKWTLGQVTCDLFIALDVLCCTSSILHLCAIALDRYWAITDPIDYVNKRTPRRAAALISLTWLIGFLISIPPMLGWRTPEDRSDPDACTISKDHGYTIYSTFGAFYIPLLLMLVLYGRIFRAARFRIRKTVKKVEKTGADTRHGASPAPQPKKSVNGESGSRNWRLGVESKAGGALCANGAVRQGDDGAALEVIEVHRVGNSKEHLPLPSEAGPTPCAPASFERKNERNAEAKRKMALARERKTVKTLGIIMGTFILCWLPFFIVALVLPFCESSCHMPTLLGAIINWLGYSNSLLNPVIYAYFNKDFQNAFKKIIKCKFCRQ
T8 sequence (Q99677 whole entry): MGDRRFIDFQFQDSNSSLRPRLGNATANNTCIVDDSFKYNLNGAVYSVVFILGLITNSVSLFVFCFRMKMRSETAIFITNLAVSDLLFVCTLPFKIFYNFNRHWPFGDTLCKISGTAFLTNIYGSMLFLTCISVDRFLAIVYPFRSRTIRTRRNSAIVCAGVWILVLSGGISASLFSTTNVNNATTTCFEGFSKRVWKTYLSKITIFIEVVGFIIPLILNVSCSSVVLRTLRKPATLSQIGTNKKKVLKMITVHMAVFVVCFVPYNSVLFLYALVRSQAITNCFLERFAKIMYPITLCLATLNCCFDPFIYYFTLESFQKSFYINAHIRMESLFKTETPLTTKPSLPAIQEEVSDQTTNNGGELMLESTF

For C[C@H](CO)NC(=O)c1cccc(/C=C\CCCC(=O)N(C)C)c1 [VSN16R], the Activity (ML1) was “Negligible Activity”, the Activity (κ) was “Negligible Activity” and the Activity (EDG3) was “Negligible Activity”. The Activity (hERG Kv11.1 K+ channel) was “Negligible Activity”, the “Electrocardiogram Heart Rate” value (healthy humans; 25mg) was 59 ± 12 beats per min and the “PR Duration” value (healthy humans; 25mg) was 184 ± 20 ms. For the same molecule, the “QRS Duration” value (healthy humans; 25mg) was 98 ± 9 ms, the “QT Duration” value (healthy humans; 25mg) was 388 ± 26 ms and the “RR Duration” value (healthy humans; 25mg) was 1044 ± 185 ms. For the same molecule, the “Activated Partial Thrombin Time” value (healthy humans; 25mg) was 26.4 ± 0.9 s, the “Partial Prothrombin Time” value (healthy humans; 25mg) was 10.8 ± 0.3 s and the “Supine Diastolic Blood Pressure” value (healthy humans; 25mg) was 65 ± 4 mmHg. The “Supine Pulse Rate” value (healthy humans; 25mg) was 61 ± 15 beats per min, the “Supine Respiratory Rate” value (healthy humans; 25mg) was 14 ± 2 Breath/min and the “Supine Systolic Blood Pressure” value (healthy humans; 25mg) was 117 ± 9 mmHg. The “Supine Temperature” value (healthy humans; 25mg) was 36.6 ± 0.2 ˚C, the “Thrombin Time” value (healthy humans; 25mg) was 16.2 ± 0.8 s and the “Urinanalysis Ketones” value (healthy humans; 25mg) was 0.0 ± 0.0 mmol/L. For the same molecule, the “Urinanalysis Specific Gravity” value (healthy humans; 25mg) was 1.016 ± 0.012, the “Urinanalysis pH” value (healthy humans; 25mg) was 7.0 ± 0.6 and the “Urine Bilirubin” value (healthy humans; 25mg) was 0.0 ± 0.0 µmol/L. For the same molecule, the “Urine Glucose” value (healthy humans; 25mg) was 0.0 ± 0.0 mmol/L, the “Urine Protein” value (healthy humans; 25mg) was 0.08 ± 0.10 g/L and the “Urine RBC” value (healthy humans; 25mg) was 0.0 ± 0.0 mg/L. For the same molecule, the “Electrocardiogram Heart Rate” value (healthy humans; 800mg) was 67 ± 8 beats per min, the “PR Duration” value (healthy humans; 800mg) was 164 ± 16 ms and the “QRS Duration” value (healthy humans; 800mg) was 98 ± 7 ms. For the same molecule, the “QT Duration” value (healthy humans; 800mg) was 383 ± 19 ms, the “RR Duration” value (healthy humans; 800mg) was 903 ± 122 ms and the “Activated Partial Thrombin Time” value (healthy humans; 800mg) was 24.9 ± 1.9 s. The “Partial Prothrombin Time” value (healthy humans; 800mg) was 10.9 ± 0.5 s, the “Supine Diastolic Blood Pressure” value (healthy humans; 800mg) was 71 ± 9 mmHg and the “Supine Pulse Rate” value (healthy humans; 800mg) was 65 ± 9 beats per min. The “Supine Respiratory Rate” value (healthy humans; 800mg) was 16 ± 2 Breath/min, the “Supine Systolic Blood Pressure” value (healthy humans; 800mg) was 118 ± 10 mmHg and the “Supine Temperature” value (healthy humans; 800mg) was 36.6 ± 0.2 ˚C. The “Thrombin Time” value (healthy humans; 800mg) was 15.9 ± 1.2 s, the “Urinanalysis Ketones” value (healthy humans; 800mg) was 0.0 ± 0.0 mmol/L and the “Urinanalysis Specific Gravity” value (healthy humans; 800mg) was 1.017 ± 0.009. The “Urinanalysis pH” value (healthy humans; 800mg) was 6.0 ± 0.4, the “Urine Bilirubin” value (healthy humans; 800mg) was 0.0 ± 0.0 µmol/L and the “Urine Glucose” value (healthy humans; 800mg) was 0.0 ± 0.0 mmol/L. The “Urine Protein” value (healthy humans; 800mg) was 0.06 ± 0.08 g/L, the “Urine RBC” value (healthy humans; 800mg) was 0.0 ± 0.0 mg/L and the Activity (M2) was “Negligible Activity”. For the same molecule, the “Animals with H reflex inhibited” value [1] was 3/5, the Activity (CCKA) was “Negligible Activity” and the Activity (A3) was “Negligible Activity”. For the same molecule, the Activity (5-HT1A) was “Negligible Activity”, the Activity (GPR23) was “Negligible Activity” and the “Single BKCa channel activity” value (BKCa channel) was “stimulated single BKCa channel activity”. For the same molecule, the “Relaxation in the presence of extracellular KCl” value (rat mesenteric artery; 60 mM KCl) was “produced no relaxation”, the Vasorelaxation (rat mesenteric artery; endothelium intact vs denuded) was “significant vasorelaxation in an endothelium‐dependent manner” and the IC50 (CYP450 2C19) was > 10 µM. The IC50 (CYP450 2E1) was > 10 µM and the Activity (M3) was “Negligible Activity”.
